Data reported in patent US12371428B2 (Exelixis, Inc., priority 2019, dated 2025).
Like-named read-outs stand apart in the source and are kept apart here.

What was measured:
[1] = target: Met (phospho-Met, HGF-stimulated PC-3 prostate cancer cells) (Homo sapiens (Human), UniProt P08581); assay: Met autophosphorylation ELISA in PC-3 cells (Example F); format: cell-based; details: cellular activity, read-out: c-Met IC50
Outline: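 Compounds were tested on HGF-stimulated PC-3 cells. After 24 h culture and 3 h serum starvation, cells got compound for 1 h and 100 ng/mL HGF for 10 min, and Met tyrosine phosphorylation was measured by ELISA.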

[2] = target: AXL (phospho-AXL, Gas6-stimulated A-172 glioblastoma cells) (Homo sapiens (Human), UniProt P30530); assay: AXL autophosphorylation ELISA in A-172 cells (Example E); format: cell-based; details: cellular activity, read-out: Axl IC50
Sequence of AXL (phospho-AXL, Gas6-stimulated A-172 glioblastoma cells) (P30530 26-894): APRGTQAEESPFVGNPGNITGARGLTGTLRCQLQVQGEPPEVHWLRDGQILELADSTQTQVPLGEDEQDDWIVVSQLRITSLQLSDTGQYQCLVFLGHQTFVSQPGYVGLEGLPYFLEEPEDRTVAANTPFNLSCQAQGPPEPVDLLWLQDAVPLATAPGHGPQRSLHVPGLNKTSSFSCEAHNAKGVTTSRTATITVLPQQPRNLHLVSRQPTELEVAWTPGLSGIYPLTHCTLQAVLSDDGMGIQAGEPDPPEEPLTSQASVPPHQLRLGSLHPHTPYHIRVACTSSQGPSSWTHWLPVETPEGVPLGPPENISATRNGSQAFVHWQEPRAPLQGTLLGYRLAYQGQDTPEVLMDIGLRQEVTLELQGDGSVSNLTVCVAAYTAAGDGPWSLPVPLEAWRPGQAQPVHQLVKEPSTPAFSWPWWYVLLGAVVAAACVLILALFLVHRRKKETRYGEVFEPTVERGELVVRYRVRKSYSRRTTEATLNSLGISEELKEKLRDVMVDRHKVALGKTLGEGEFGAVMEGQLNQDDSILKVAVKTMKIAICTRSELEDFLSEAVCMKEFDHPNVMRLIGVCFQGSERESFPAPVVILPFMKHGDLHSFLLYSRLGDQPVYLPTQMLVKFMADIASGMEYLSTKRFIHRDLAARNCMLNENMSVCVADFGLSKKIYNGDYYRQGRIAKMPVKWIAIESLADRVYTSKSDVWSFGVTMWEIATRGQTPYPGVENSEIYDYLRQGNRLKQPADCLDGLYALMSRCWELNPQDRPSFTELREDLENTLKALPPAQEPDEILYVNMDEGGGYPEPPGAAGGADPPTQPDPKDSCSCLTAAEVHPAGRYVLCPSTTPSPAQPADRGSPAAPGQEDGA
Protocol: A-172 cells were incubated at 37° C., 5% CO2 for 24 h and then starved for 24 h in serum-free medium. Test compounds were serially diluted to produce an 8-point dose curve in fresh serum-free medium to a final concentration of 0.3% DMSO (vehicle) and added to the cells and incubated for 1 h. […] Lysates were collected and 100 μL/well added into the human phospho-AXL DuoSet IC ELISA (R&D Systems #DYC2228-2). […] Positive control wells (100% activity) contained Gas6-stimulated, DMSO-treated cell lysates. Negative control wells (0% activity) contained Gas6-stimulated, reference inhibitor-treated cell lysates. IC50 values were calculated by nonlinear regression analysis using a 4-parameter logistic curve fit in ActivityBase XE (IDBS).

[3] = target: Mer (phospho-Mer, MERTK-transfected 293A cells) (Homo sapiens (Human), UniProt Q12866); assay: Mer autophosphorylation ELISA in transient transfected 293A cells (Example H); format: cell-based; details: cellular activity
Outline: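 Inhibition of cellular Mer autophosphorylation is determined in 293A cells transiently expressing human MERTK after 1 h compound exposure (8 concentrations, serum-free, 0.3% DMSO). Phospho-Mer in clarified lysates is measured by ELISA, with DMSO and reference-inhibitor wells defining the 100% and 0% activity limits.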

[4] = target: Human MER (residues 528-999) (Homo sapiens (Human), UniProt Q12866); assay: Human Mer kinase assay, HTRF KinEase (Example C-2); format: biochemical
Sequence of Human MER (residues 528-999) (Q12866 528-999): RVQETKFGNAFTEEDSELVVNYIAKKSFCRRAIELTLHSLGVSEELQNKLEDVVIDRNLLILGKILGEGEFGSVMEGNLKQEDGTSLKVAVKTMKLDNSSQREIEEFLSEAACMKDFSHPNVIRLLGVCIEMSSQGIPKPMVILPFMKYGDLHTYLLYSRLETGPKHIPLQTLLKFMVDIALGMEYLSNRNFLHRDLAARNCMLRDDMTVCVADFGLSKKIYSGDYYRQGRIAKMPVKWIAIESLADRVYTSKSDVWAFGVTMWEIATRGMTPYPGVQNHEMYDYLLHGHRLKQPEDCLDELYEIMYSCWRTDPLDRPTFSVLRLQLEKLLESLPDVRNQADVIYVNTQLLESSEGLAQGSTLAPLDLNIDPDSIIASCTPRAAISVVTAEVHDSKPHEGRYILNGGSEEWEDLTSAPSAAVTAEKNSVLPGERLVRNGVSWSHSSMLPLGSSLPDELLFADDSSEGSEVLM
Outline: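 IC50 values from 10 concentrations via 4-parameter logistic fit of […], with DMSO as 100% and 1 μM reference compound as 0% activity. Reaction: MER kinase domain 528-999, 1 ng/well, 40 μM ATP (Km), biotin peptide, 5 mM MgCl2, 1 mM DTT, 3% DMSO, room temperature 60 min; HTRF streptavidin-XL665/Eu-antibody detection.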

[5] = target: Human KDR (residues 790-1356) (Homo sapiens (Human), UniProt P35968); assay: Human KDR kinase assay, HTRF KinEase (Example B-2); format: biochemical
Sequence of Human KDR (residues 790-1356) (P35968 790-1356): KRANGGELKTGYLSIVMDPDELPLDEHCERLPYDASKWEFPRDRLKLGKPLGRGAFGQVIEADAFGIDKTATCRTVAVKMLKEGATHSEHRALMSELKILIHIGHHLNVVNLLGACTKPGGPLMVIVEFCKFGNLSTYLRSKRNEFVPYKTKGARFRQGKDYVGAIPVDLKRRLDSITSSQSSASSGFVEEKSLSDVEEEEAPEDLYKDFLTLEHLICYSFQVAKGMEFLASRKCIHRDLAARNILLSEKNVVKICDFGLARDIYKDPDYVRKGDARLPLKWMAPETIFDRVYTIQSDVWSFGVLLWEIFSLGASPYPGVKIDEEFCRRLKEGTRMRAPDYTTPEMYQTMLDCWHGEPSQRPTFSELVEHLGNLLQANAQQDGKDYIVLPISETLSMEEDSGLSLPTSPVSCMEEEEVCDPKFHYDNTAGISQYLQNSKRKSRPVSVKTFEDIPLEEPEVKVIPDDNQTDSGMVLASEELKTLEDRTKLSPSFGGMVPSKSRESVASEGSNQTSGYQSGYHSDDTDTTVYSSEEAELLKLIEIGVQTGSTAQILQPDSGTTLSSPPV
Outline: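 Human KDR residues 790-1356 (0.1 ng/well) in buffer with 5 mM MgCl2, 1 mM MnCl2, 1 mM DTT, biotinylated peptide substrate, ATP at Km (4.0 μM), 3% DMSO, 10 compound concentrations; 40 min, room temperature. EDTA stop, streptavidin-XL665/Eu-TK antibody HTRF read 665/620 nm; 4-parameter IC50.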

[6] = target: Human MET (residues 956-1390) (Homo sapiens (Human), UniProt P08581); assay: Human Met kinase assay, HTRF KinEase (Example D-2); format: biochemical; details: read-out: c-Met IC50
Sequence of Human MET (residues 956-1390) (P08581 956-1390): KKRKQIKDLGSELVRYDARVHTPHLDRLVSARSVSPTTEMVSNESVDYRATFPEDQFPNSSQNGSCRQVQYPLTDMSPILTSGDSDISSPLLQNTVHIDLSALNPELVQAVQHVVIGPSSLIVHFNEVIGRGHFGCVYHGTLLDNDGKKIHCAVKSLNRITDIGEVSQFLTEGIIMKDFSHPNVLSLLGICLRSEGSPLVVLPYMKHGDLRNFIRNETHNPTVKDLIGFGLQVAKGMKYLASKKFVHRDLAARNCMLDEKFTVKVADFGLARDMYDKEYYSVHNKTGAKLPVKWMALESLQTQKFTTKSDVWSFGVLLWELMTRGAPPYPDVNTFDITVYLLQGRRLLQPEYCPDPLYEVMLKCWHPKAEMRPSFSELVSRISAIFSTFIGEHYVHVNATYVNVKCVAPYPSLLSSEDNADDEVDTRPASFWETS
Outline: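 IC50 values come from a 4-parameter logistic fit of the […] fluorescence ratio, set between DMSO (100%) and reference compound at 1 μM (0%). Reactions held MET 956-1390 at 0.1 ng/well, ATP at Km, biotinylated peptide, 5 mM MgCl2, 1 mM MnCl2, 1 mM DTT and 3% DMSO, and ran 40 min at room temperature before streptavidin-XL665/Eu-antibody detection.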

[7] = target: KDR (phospho-KDR, VEGF165-stimulated HUVEC cells) (Homo sapiens (Human), UniProt P35968); assay: KDR autophosphorylation ELISA in HUVEC cells (Example G); format: cell-based; details: cellular activity; KDR autophosphorylation ELISA in HUVEC cells
Sequence of KDR (phospho-KDR, VEGF165-stimulated HUVEC cells) (P35968 20-1356): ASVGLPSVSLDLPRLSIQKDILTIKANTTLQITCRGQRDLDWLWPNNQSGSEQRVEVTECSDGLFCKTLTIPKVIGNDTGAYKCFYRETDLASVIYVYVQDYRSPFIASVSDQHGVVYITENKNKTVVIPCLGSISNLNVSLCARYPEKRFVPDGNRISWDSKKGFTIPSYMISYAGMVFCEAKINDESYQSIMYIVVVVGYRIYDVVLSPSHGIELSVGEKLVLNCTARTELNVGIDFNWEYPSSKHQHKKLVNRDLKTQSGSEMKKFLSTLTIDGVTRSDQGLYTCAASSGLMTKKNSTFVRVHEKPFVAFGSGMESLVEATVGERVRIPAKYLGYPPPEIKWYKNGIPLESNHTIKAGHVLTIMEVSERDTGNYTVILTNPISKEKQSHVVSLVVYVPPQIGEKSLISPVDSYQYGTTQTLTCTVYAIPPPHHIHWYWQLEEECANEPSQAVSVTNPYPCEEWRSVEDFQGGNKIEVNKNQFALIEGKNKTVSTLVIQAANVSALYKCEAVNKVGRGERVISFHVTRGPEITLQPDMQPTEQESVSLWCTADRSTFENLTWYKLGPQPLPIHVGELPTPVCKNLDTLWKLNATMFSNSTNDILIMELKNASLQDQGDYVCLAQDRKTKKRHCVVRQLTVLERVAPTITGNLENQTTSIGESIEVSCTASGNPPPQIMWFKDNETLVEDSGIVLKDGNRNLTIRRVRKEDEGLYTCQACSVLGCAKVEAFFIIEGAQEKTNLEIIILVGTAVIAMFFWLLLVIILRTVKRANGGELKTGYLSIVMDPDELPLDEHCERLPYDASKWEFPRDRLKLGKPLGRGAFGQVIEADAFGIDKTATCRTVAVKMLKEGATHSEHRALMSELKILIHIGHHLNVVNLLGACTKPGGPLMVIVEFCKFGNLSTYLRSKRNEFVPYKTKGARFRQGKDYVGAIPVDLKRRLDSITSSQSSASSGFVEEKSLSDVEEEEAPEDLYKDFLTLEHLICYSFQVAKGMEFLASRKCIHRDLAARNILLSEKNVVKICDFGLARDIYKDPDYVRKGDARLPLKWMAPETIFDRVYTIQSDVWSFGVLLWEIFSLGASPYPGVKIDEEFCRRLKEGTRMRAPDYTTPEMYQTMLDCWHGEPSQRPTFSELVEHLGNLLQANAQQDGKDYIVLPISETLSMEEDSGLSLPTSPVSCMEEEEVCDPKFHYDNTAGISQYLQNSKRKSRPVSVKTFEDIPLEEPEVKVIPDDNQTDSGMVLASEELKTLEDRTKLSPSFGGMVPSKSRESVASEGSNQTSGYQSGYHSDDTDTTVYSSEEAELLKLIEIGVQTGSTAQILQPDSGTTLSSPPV
Outline: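 Cells seeded, grown 24 h at 37 °C, starved 24 h serum-free; cpd 8-pt curve, 0.3% DMSO, 1 h; VEGF165 100 ng/mL, 5 min; cold PBS wash, lysis with orthovanadate and protease/phosphatase inhibitors; pKDR ELISA; IC50 by 4-parameter logistic regression.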

[8] = Met autophosphorylation ELISA in PC-3 cells
[9] = AXL autophosphorylation ELISA in A-172 cells
[10] = Mer autophosphorylation ELISA in transient transfected 293A cells
[11] = protocol of Example C-2 (other compounds)
[12] = protocol of Example B-2 (other compounds)
[13] = protocol of Example D-2 (other compounds)

Sequence of Met (phospho-Met, HGF-stimulated PC-3 prostate cancer cells) (P08581 25-1390): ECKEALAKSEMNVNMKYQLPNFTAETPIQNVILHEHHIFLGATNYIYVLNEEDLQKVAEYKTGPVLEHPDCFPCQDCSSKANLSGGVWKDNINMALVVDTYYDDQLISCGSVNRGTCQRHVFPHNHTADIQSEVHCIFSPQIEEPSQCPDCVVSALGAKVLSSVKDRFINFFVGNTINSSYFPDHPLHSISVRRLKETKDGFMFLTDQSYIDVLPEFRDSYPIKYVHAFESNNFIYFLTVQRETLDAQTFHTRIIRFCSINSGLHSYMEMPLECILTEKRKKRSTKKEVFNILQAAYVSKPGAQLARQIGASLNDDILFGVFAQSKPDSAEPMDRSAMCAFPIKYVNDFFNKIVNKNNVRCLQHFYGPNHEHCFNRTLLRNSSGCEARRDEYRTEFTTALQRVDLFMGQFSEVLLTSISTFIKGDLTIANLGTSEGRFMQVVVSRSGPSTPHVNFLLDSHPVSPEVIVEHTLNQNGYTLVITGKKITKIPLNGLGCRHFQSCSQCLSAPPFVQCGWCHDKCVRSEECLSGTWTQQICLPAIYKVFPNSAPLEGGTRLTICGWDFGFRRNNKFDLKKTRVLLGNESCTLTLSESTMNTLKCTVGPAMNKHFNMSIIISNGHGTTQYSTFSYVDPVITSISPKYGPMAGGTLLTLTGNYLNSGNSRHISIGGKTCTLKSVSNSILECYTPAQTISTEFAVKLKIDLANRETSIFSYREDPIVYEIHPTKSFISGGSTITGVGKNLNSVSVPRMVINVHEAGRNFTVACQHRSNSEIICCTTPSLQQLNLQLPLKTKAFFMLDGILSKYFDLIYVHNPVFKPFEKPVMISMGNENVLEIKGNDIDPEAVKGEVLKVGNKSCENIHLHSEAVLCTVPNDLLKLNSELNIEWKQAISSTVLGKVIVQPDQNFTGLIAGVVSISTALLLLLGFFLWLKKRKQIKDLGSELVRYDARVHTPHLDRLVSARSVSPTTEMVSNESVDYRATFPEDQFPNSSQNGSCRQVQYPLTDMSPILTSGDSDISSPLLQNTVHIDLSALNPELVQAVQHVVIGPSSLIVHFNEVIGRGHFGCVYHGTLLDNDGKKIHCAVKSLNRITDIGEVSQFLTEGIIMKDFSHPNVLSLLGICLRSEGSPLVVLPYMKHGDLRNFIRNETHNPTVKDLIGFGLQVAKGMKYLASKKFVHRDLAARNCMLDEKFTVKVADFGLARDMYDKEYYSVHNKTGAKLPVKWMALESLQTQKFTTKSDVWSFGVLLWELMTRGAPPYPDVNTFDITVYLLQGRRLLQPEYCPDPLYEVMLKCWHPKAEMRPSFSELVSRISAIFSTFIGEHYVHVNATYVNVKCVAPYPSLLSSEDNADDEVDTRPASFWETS

SMILES | IC50 [1, 8] [nM] | IC50 [3, 10] [nM] | IC50 [4, 11] [nM] | IC50 [5, 12] [nM] | IC50 [6, 13] [nM] | also measured
CNC(=O)c1cc2c(Oc3ccc(NC(=O)c4cnc(C)c(-c5ccc(F)cc5)c4O)cc3)ccnc2cn1 [Compound 398, 4-[4-[[5-(4-fluorophenyl)-4-hydroxy-6-methylpyridine-3-carbonyl]amino]phenoxy]-N-methyl-1,7-naphthyridine-6-carboxamide] | < 100 | < 100 |  |  |  | IC50 [2, 9]: < 100 nM
Cc1ncc(C(=O)Nc2ccc(Oc3ccnc4cc(Br)cnc34)cc2)c(O)c1-c1ccc(F)cc1 [Compound 149, N-[4-[(7-Bromo-1,5-naphthyridin-4-yl)oxy]phenyl]-5-(4-fluorophenyl)-4-hydroxy-6-methylpyridine-3-carboxamide] | < 100 | < 100 | < 100 | 100 to 300 | < 100 | 
COc1nc2c(Oc3ccc(NC(=O)c4cn(C)c(C)c(-c5ccc(F)cc5)c4=O)cc3F)ccnc2cc1N [Compound 803, N-[4-[(7-amino-6-methoxy-1,5-naphthyridin-4-yl)oxy]-3-fluorophenyl]-5-(4-fluorophenyl)-1,6-dimethyl-4-oxopyridine-3-carboxamide] |  |  |  |  |  | IC50 ([1]; PC-3 cells): < 100 nM; IC50 ([2]; A-172 cells): < 100 nM; IC50 ([3]; transfected 293A cells): < 100 nM
Cc1ccc2nccc(Oc3ccc(NC(=O)c4c(C)nc(C)c(-c5ccc(F)cc5C)c4O)cc3)c2n1 [Compound 507, 5-(4-fluoro-2-methylphenyl)-4-hydroxy-2,6-dimethyl-N-[4-[(6-methyl-1,5-naphthyridin-4-yl)oxy]phenyl]pyridine-3-carboxamide] |  | 100 to 300 |  |  |  | IC50 ([4]; protocol of Example C-2): 100 to 300 nM; IC50 ([5]; protocol of Example B-2): > 300 nM; IC50 ([6]; protocol of Example D-2): < 100 nM; IC50 [7]: < 100 nM
Cc1ncc(C(=O)Nc2ccc(Oc3ccnc4cc(F)cnc34)c(F)c2)c(O)c1-c1ccc(F)cc1 [Compound 160, N-[3-Fluoro-4-[(7-fluoro-1,5-naphthyridin-4-yl)oxy]phenyl]-5-(4-fluorophenyl)-4-hydroxy-6-methylpyridine-3-carboxamide] | < 100 |  | < 100 | < 100 | < 100 | IC50 [7]: < 100 nM
COc1cc2nccc(Oc3ccc(NC(=O)c4cn(-c5ccccn5)cc(-c5ccc(F)cc5)c4=O)cc3F)c2nc1OC [Compound 124, N-[4-[(6,7-Dimethoxy-1,5-naphthyridin-4-yl)oxy]-3-fluorophenyl]-5-(4-fluorophenyl)-4-oxo-1-pyridin-2-ylpyridine-3-carboxamide] | < 100 | < 100 | < 100 | > 300 | < 100 | 
COc1cc2nccc(Oc3ccc(NC(=O)c4cc(Br)c(C)n(-c5ccc(F)cc5)c4=O)cc3F)c2nc1OC [Compound 366, 5-bromo-N-[4-[(6,7-dimethoxy-1,5-naphthyridin-4-yl)oxy]-3-fluorophenyl]-1-(4-fluorophenyl)-6-methyl-2-oxopyridine-3-carboxamide] | < 100 | < 100 | < 100 | 100 to 300 | 100 to 300 | 
COc1cnc2c(Oc3ccc(NC(=O)c4c(C)ncn(-c5ccc(F)cc5)c4=O)cc3)ccnc2c1 [Compound 255, 1-(4-Fluorophenyl)-N-[4-[(7-methoxy-1,5-naphthyridin-4-yl)oxy]phenyl]-4-methyl-6-oxopyrimidine-5-carboxamide] | 100 to 300 | < 100 | < 100 | > 300 | 100 to 300 | 
Cc1cc(F)ccc1-c1c(C)ncc(C(=O)Nc2ccc(Oc3ccnc4cc(C(C)C)cnc34)cc2)c1O [Compound 597, 5-(4-Fluoro-2-methylphenyl)-4-hydroxy-6-methyl-N-[4-[(7-propan-2-yl-1,5-naphthyridin-4-yl)oxy]phenyl]pyridine-3-carboxamide] |  |  |  |  |  | IC50 ([4]; protocol of Example C-2): > 300 nM; IC50 ([5]; protocol of Example B-2): > 300 nM; IC50 ([6]; protocol of Example D-2): 100 to 300 nM; IC50 [7]: 100 to 300 nM

More lines, main results first:

IC50 [1, 8] [nM] | IC50 [3, 10] [nM] | IC50 [4, 11] [nM] | IC50 [5, 12] [nM] | IC50 [6, 13] [nM] | SMILES | also measured
< 100 | < 100 |  |  |  | Cc1cc(C)n(-c2ccc(F)cc2)c(=O)c1C(=O)Nc1ccc(Oc2ccnc3cc(C(C)CO)cnc23)c(F)c1 (stereo not drawn) [Compound 599, N-[3-Fluoro-4-[[7-(1-hydroxypropan-2-yl)-1,5-naphthyridin-4-yl]oxy]phenyl]-1-(4-fluorophenyl)-4,6-dimethyl-2-oxopyridine-3-carboxamide] | IC50 [2, 9]: < 100 nM
< 100 | < 100 |  |  |  | COc1cc2nccc(Oc3ccc(NC(=O)c4cn(CCF)c(C)c(-c5ccc(F)cc5)c4=O)cc3F)c2nc1OC [Compound 622, N-[4-[(6,7-Dimethoxy-1,5-naphthyridin-4-yl)oxy]-3-fluorophenyl]-1-(2-fluoroethyl)-5-(4-fluorophenyl)-6-methyl-4-oxopyridine-3-carboxamide] | IC50 [2, 9]: < 100 nM
< 100 | < 100 | < 100 | > 300 | < 100 | COc1cc2nccc(Oc3ccc(NC(=O)c4c(C)n(C)cc(-c5ccc(F)cc5)c4=O)cc3)c2nc1OC [Compound 238, N-[4-[(6,7-Dimethoxy-1,5-naphthyridin-4-yl)oxy]phenyl]-5-(4-fluorophenyl)-1,2-dimethyl-4-oxopyridine-3-carboxamide] | 
< 100 | < 100 |  |  |  | COc1ccc2nccc(Oc3ccc(NC(=O)c4c(C)ncc(-c5ccc(F)cc5C)c4O)cc3)c2n1 [Compound 493, 5-(4-fluoro-2-methylphenyl)-4-hydroxy-N-[4-[(6-methoxy-1,5-naphthyridin-4-yl)oxy]phenyl]-2-methylpyridine-3-carboxamide] | IC50 [2, 9]: < 100 nM
 | 100 to 300 |  |  |  | COc1cnc2c(Oc3ccc(NC(=O)c4cn(CCO)c(C)c(-c5ccc(F)cc5)c4=O)cc3F)ccnc2c1 [Compound 621, N-[3-Fluoro-4-[(7-methoxy-1,5-naphthyridin-4-yl)oxy]phenyl]-5-(4-fluorophenyl)-1-(2-hydroxyethyl)-6-methyl-4-oxopyridine-3-carboxamide] | IC50 ([4]; protocol of Example C-2): < 100 nM; IC50 ([5]; protocol of Example B-2): > 300 nM; IC50 ([6]; protocol of Example D-2): < 100 nM; IC50 [7]: 100 to 300 nM
100 to 300 | < 100 | < 100 | > 300 | 100 to 300 | COc1cc2nccc(Oc3ccc(NC(=O)c4cnc(C(F)(F)F)c(-c5ccc(F)cc5)c4O)cc3F)c2nc1OC [Compound 79, N-[4-[(6,7-Dimethoxy-1,5-naphthyridin-4-yl)oxy]-3-fluorophenyl]-5-(4-fluorophenyl)-4-hydroxy-6-(trifluoromethyl)pyridine-3-carboxamide] | 
< 100 | < 100 | < 100 | > 300 | < 100 | COc1cc2nccc(Oc3ccc(NC(=O)c4cn(-c5cnn(C)c5)c(C)c(-c5ccc(F)cc5)c4=O)cc3)c2nc1OC [Compound 141, N-[4-[(6,7-Dimethoxy-1,5-naphthyridin-4-yl)oxy]phenyl]-5-(4-fluorophenyl)-6-methyl-1-(1-methylpyrazol-4-yl)-4-oxopyridine-3-carboxamide] | 
